{
  "source": "patent US20240139167A1",
  "about": "“LYSOSOME-ASSOCIATED MEMBRANE PROTEIN TARGETING COMPOUNDS AND USES THEREOF” (HADASIT MEDICAL RESEARCH SERVICES AND DEVELOPMENT LTD., priority 2021, published 2024)",
  "assay_type_in_all_cases": "cell-based, human",
  "key": {"[1]": {"tested_on": "APBD and HC skin fibroblasts", "assay": "Image-based phenotyping (IBP)", "excerpt": "FIGS. 7A-7F include graphs of IBP parameters in HC and APBD fibroblasts and variable importance plot as an output of the random forest classification performed on the different variables (cell features) indicated on the x-axis. […] The different comparisons analyzed (comp A=Compound 1) are shown (7B); bar graphs of lysosomal parameters affected by Compound 1 in APBD and HC cells as analyzed by IBP (7C); Volcano plots of the proteins affected by APBD and Compound 1 under starvation and glycogen burden conditions (7D); Venn diagrams of proteins down-modulated by APBD and up modulated by Compound 1 and vice versa under starvation (48) and glycogen burden (48+24) conditions (7E); and gene ontology of proteins up-modulated (left) and down-modulated (right) by Compound 1 (7F).\nAPBD skin fibroblasts were seeded at 1,000 cells/well and cultured in specialized microscopy-grade 96-well plates (Grenier Bio-One, Germany). Following the different treatments, a mix of Thermo Scientific cellular fluorescent dyes in PBS was added to each well for 30 min at 37° C. in a 5% CO2 incubator. This mix (FIGS. 4C and 7B) included DAPI (1 μg/ml, nuclear (DNA) stain), MitoTracker Green (500 nM, potential-independent mitochondrial stain), TMRE ([…] mitochondrial stain), and Cell Mask Deep Red (0.5 μg/ml, cytosol stain). In FIG. 7C, only lysosomes were stained with LysoTracker Deep Red (75 nM). Cells were then fixed with 4% paraformaldehyde (PFA), washed with PBS and plates were transferred to an InCell2200 (GE Healthcare, U.K.) machine for image acquisition at 40× magnification. The output produced was based on comparative fluorescence intensity. Object segmentation was carried out using multi-target analysis in the GE analysis workstation to identify the nuclei and cell boundary. […]\nAs a first step, the inventors required a classification method, both wholistic and feature-specific, which would enable to quantify differences between APBD and HC cells and thus to estimate the restorative effect of Compound 1 on APBD cells. […]"}, "[2]": {"tested_on": "HC and PD patient fibroblasts", "assay": "Seahorse ATP rate assay in Pompe disease fibroblasts", "method": "FIG. 17 includes a vertical bar graph showing glycolytic (1) and mitochondrial (2) ATP production determined by Agilent's Seahorse machine and ATP rate assay kit. HC and PD patient fibroblasts were serum/glucose-starved for 48 h and then full medium was replenished for 24 h without (untreated), or with (chronic) 50 μM 144DG11. Acute, 50 μM 144DG11 was added on assay for 20 min after 24 h of serum/glucose replenishment. Readings were normalized to cell number as determined by Crystal Violet staining. Shown are mean and SD values based on n=6 repeats. In acutely 144DG11-treated PD fibroblasts, glycolytic and total ATP production was increased, as compared to untreated PD cells (p<0.002, One Way ANOVA with Sidak's post-hoc correction for multiple comparisons)."}, "[3]": {"tested_on": "LAMP1-KD and GFP control APBD primary fibroblasts", "assay": "LAMP1 knockdown: autophagic flux, lysosomal pH (Lysosensor), PAS glycogen", "excerpt": "(§1) FIGS. 6A-6E include bar graphs of autophagic flux, determined by the extent of lysosomal inhibitors-dependent increase in the ratio of lipidated to non-lipidated LC3 (LC3II/LC3I) (6A); representative TEM images of liver tissue from 9.5 month old Gbe^ys/ys mice treated with Compound 11, or 5% DMSO vehicle (6B), G: Glycogen (alpha particles) and polyglucosan (structures with variable electron densities), L: Lysosomes, M: Mitochondria; right panel: lysosomal glycogen stain was quantified by ImageJ “count particle” tool; micrograph of LAMP1 knocked down and control APBD primary skin fibroblasts treated or not with Compound 1 and lysosomal inhibitors (LI) and quantification of 3 experiments and results of Student's t-tests. *, p<0.1; **, p<0.05; ***, p<0.01 (6C); graphs of lysosomal pH changes determined in APBD primary fibroblasts transduced with lentiviruses encoding for GFP or GFP-shLAMP1 and treated or not with Compound 1 for 24 h and confocal microscope images of cells treated with Lysosensor and stained for PAS (6D); and bar graph of ATP production rate assay in LAMP1-KD and GFP (Control) cells treated for 24 h (chronic) or on assay (acute) with Compound 1 (6E).\nTo determine the functional importance of the interaction between Compound 1 and LAMP1, the inventors knocked down the latter using a lentiviral vector carrying GFP tagged shRNA against LAMP1. […] Furthermore, to test whether LAMP1-KD and Compound 1 enhanced autophagic flux by improving lysosomal function, the inventors quantified lysosomal acidification using the pH ratiometric dye Lysosensor™, which quantifies pH based on the yellow/blue emission ratio. […] The inventors show by flow cytometry (FIG. 6D, upper panel) the overall cellular acidification as an increase in 375 nm-excited yellow/blue emission, and by confocal microscopy that this acidification is associated with brighter yellow fluorescence in lysosomes (FIG. 6D, middle panel)."}, "[4]": {"tested_on": "LAMP1-KD and control APBD fibroblasts", "assay": "ATP Rate Assay in LAMP1-KD and control cells", "excerpt": "as §1\nTo test the effect of LAMP1-KD and Compound 1 on fuel utilization, the inventors again used the ATP Rate Assay (FIGS. 4A-4D) in LAMP1-KD and control APBD fibroblasts acutely or chronically treated with Compound 1."}},
  "data": [
    {"smiles": "COCCN(Cc1sccc1C)C(=O)c1cc(C)nc(O)c1", "note": "[Compound 1]", "values": [
      {"measurement": "IBP signature, features affected", "setting": "[1]", "result": "mostly affected nuclear and mitochondrial membrane potential (TMRE) parameters"},
      {"measurement": "lysosomal size", "setting": "[1]; APBD cells", "result": "reduced lysosomal size"},
      {"measurement": "mitochondrial membrane potential (MMP)", "setting": "[1]; APBD cells", "result": "hyperpolarized"},
      {"measurement": "effect on ATP production", "setting": "[2]; 24 h pre-treatment", "result": "not significant"},
      {"measurement": "overall ATP production", "setting": "[2]; PD fibroblasts, 50 μM", "result": "increased"},
      {"measurement": "relative contribution of glycolytic ATP production at the expense of mitochondrial (OxPhos) ATP production", "setting": "[2]; PD fibroblasts, 50 μM", "result": "increased"},
      {"measurement": "glycolytic and total ATP production", "setting": "[2]; PD fibroblasts, acute 50 μM 20 min, p<0.002", "result": "increased"},
      {"measurement": "autophagic flux in LAMP1 knocked down cells", "setting": "[3]; 24 h serum starvation", "result": "further enhanced"},
      {"measurement": "lysosomal pH (Lysosensor)", "setting": "[3]; GFP and LAMP1-KD APBD cells, 24 h", "result": "led to lysosomal acidification"},
      {"measurement": "reduction of cellular glycogen levels by LAMP knockdown (PAS)", "setting": "[3]; GFP control and shLAMP1-GFP transduced", "result": "slightly enhanced"},
      {"measurement": "ATP production", "setting": "[4]; LAMP1-KD cells, non-starved, chronic and acute", "result": "significantly increased total and respiratory ATP production"},
      {"measurement": "ATP production", "setting": "[4]; LAMP1-KD cells, starved, acute", "result": "increased both respiratory and glycolytic ATP"},
      {"measurement": "ATP production", "setting": "[4]; LAMP1-KD cells, starved, chronic", "result": "only respiratory ATP production increased"},
      {"measurement": "ATP production", "setting": "[4]; control cells, non-starved", "result": "only slightly influenced ATP production, and even acutely decreased it"},
      {"measurement": "ATP production", "setting": "[4]; control cells, starved, acute", "result": "only increased respiratory ATP production"},
      {"measurement": "ATP production", "setting": "[4]; control cells, starved, chronic", "result": "No significant effect"}
    ]}
  ]
}
